We go through seven compounds from patent US20130324707A1, “SYNTHETIC AMPHIPHILES FOR MEMBRANE PROTEIN MANIPULATION” (The Board of Trustees of the Leland Stanford Junior …, priority 2009, published 2013).

Data set [1] has as its system human β2 adrenergic receptor-T4-lyosome fusion protein (β2AR-T4L). Put plainly: Thermal stabilization (Tm) of β2AR-T4L in amphiphile, normalized peak ratio 341 nm/356 nm. Particulars: for Tm: β2AR-T4L. Further details: Tm: unit: °C. An excerpt:
FIG. 3 illustrates the results of comparing MNGs to MPAs at 10×CMC for stabilization efficacy of β2 adrenergic receptor-T4-lyosome fusion protein (β2AR-T4L), according to an embodiment of the invention.
FIG. 4 illustrates the results of comparing MNGs to MPAs at 50×CMC for stabilization efficacy of β2AR-T4L, according to an embodiment of the invention. Similar to FIG. 3, the horizontal dotted line extending from 50% on the y-axis in FIG. 4 indicates the melting temperature (Tm).
The branched amphiphiles of the invention have shown to have several advantageous properties that match or surpass those of many known amphiphiles. The branched nature provide improved stabilization, attributable to the dual saccharide chains, and improved solubilization, attributable to the dual hydrophobic tail groups. FIGS. 3 and 4 show a comparative study showing normalized peak ratios (341 nm/356 nm) for six different amphiphiles (illustrated in Schemes F and G) from 25° C. to 85° C., at 10×CMC and 50×CMC for human β2 adrenergic receptor-T4-lyosome fusion protein (β2AR-T4L).

The next data set relates to M3 muscarinic receptor. Put plainly: [3H]N-methylscopolamine binding to purified M3 muscarinic receptor in amphiphiles/detergents. Particulars: for Binding (counts per minute (CPM)) of [3H]NMS compared to the use of DDM alone: upon addition of the amphiphile, HEPES pH 7.5, 100 mM NaCl. As to the method: For FIG. 5, the samples (DDM, MNG-28, and MNG-14) were combined with HEPES pH 7.5 buffer in a 100 mM NaCl solution. […] Therefore, the amphiphilic compounds described herein, such as the MNG amphiphiles, provide new options for enhancing the function and analysis of various isolated and/or purified proteins and receptors.

The test system of data set [2] is human β2 adrenergic receptor-T4-lyosome fusion protein (β2AR-T4L). Put plainly: Thermal stabilization (Tm) of β2AR-T4L in amphiphile, normalized peak ratio 341 nm/356 nm. Set-up: Tm: unit: °C. Conditions: 250 × CMC; for Tm: β2AR-T4L.
The next data set addresses β2AR (Homo sapiens, UniProt P07550). In words: Lipidic cubic phase (LCP) crystallization of agonist-bound β2AR. Conditions: detergent present before incorporation into LCP. The text has this:
LCP methods have proven useful for crystallizing membrane proteins, including G protein-coupled receptors (GPCRs). However, the process of incorporating membrane proteins from a detergent solubilized state into LCP can lead to denaturation of the protein.

Data set [3] has as its system R. capsulatus LHI-RC superassembly. Put plainly: R. capsulatus photosynthetic superassembly solubilization and purification assay (detergent classification). Set-up: species or system Rhodobacter capsulatus. Conditions: words printed in the Classification column instead of a class: behaviour of the amphiphile. As to the method:
To begin the solubilization and purification process, frozen aliquots of R. capsulatus membranes were thawed, homogenized, and equilibrated to 32° C. for 30 minutes.
The membrane samples were allowed to incubate with the amphiphile for 30 minutes at 32° C. The solubilized material was then separated from the membrane debris in an ultracentrifuge at 315,000×g at 4° C. for 30 minutes. […] The tubes were then incubated and inverted for 1 hour at 4° C.
Once binding was complete, samples were loaded onto resin-retaining spin columns (e.g., emptied His Spin Trap™ columns; GE Healthcare). The columns were then inserted into a 2 mL microcentrifuge tube to retain the filtered solution during centrifugation. […] Finally, protein was eluted into a fresh microcentrifuge tube with three 0.2 mL elution buffer aliquots (this buffer was identical to binding buffer with the addition of 1 M imidazole).
The R. capsulatus LHI-RC complexes extracted and purified by this procedure contain large numbers of cofactors that have absorptions at distinct wavelengths, and each component of the LHI-RC superassembly has a different inherent stability outside the lipid bilayer. The solubilization protocol outlined above therefore provides a multifaceted assessment of the efficacy of conventional detergents and novel amphiphiles. UV-Vis absorption spectroscopy data obtained at various stages of the protocol allow one to determine which protein components have degraded at these stages. […] The disruption potential was measured as the yield of superassembly extracted during solubilization (or, alternatively and more precisely, as the absence of superassembly in the pellet from the spin following solubilization).
The stabilizing propensity was determined from the spectra of the purified protein.

The nature of data set [4]: Critical micelle concentration (CMC) by fluorescent dye uptake. Type of data set: physicochemical. The text has this:
The Critical Micelle Concentrations (CMCs) of compounds of the invention can be determined by standard techniques known to those of skill in the art. For example, CMCs of the carbohydrate-based amphiphiles described herein can be determined by monitoring uptake of a fluorescent dye (e.g., a dye such as 1,6-diphenylhexatriene) with increasing detergent concentration, monitored by fluorescence spectroscopy.

Setting [5] is: 10 × CMC, scan from 25° C. to 85° C.

Marks after values point to notes of the source that are not given here.

Sequence of β2AR (P07550 whole entry): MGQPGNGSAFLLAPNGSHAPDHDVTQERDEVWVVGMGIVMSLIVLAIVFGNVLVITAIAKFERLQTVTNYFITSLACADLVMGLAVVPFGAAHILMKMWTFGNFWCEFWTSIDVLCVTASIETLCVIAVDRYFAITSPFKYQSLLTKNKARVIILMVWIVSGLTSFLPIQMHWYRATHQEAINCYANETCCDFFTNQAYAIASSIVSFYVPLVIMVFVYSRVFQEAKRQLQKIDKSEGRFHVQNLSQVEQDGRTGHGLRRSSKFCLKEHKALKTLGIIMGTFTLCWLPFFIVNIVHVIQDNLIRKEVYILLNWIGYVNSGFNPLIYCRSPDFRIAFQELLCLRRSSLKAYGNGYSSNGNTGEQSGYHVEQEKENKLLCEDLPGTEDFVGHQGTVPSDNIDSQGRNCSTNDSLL

Regarding `CCCCCCCCCCCCO[C@@H]1O[C@H](CO)[C@@H](O[C@H]2O[C@H](CO)[C@@H](O)[C@H](O)[C@H]2O)[C@H](O)[C@H]1O` [DDM, dodecylmaltoside, reference compound], the values for the Tm in data set [1] (setting [5]), in data set [1] (50 × CMC) and in data set [2] were 63.5 (n = 4)*, 63.0 (n = 4) and 62.2 (n = 4), respectively. Further, the “Specific binding to [3H]N-methylscopolamine” value in the data set with M3 muscarinic receptor (M3 receptor purified from baculovirus infected insect cells using the detergent) is “little specific binding”. Also, on β2AR, the “Outcome of LCP crystallization of agonist-bound β2AR” value is listed as “not sufficiently stable to survive the transition to LCP”.
On to `CC(C)(C)c1ccc(C(=O)NCC(CNC(=O)c2ccc(C(C)(C)C)cc2)(COC2OC(CO)C(O)C(O)C2O)COC2OC(CO)C(O)C(O)C2O)cc1` (centres unmarked) [GNG-3], for which the “Classification (entry in words)” value in data set [3] is recorded as “aggregation”.
Still for that read-out and setting: under `O=C(NCC(CNC(=O)C1CCCCC1)(COC1OC(CO)C(O)C(O)C1O)COC1OC(CO)C(O)C(O)C1O)C1CCCCC1` (centres unmarked) [GNG-5] stands “Insoluble”.
Take `CC(C)(C)c1ccc(OCC(COc2ccc(C(C)(C)C)cc2)(COC2OC(CO)C(O)C(O)C2O)COC2OC(CO)C(O)C(O)C2O)cc1` (centres unmarked) [GNG-8]: the “Classification (entry in words)” value in data set [3] is “aggregation”.
Consider `CCCCCCCC(CCCCCCC)(COC1OC(CO)C(O)C(O)C1O)COC1OC(CO)C(O)C(O)C1O` (centres unmarked) [GNG-9], for which the “Classification (entry in words)” value in data set [3] was “limited”. Moreover, in data set [4], the “CMC” value was 0.11 mM and the “CMC (%)” value is recorded as 0.0066%.
`CCCCCCCCCCC(CCCCCCCCCC)(COC1OC(CO)C(OC2OC(CO)C(O)C(O)C2O)C(O)C1O)COC1OC(CO)C(OC2OC(CO)C(O)C(O)C2O)C(O)C1O` (centres unmarked) [MNG-14]: the “Stabilization of β2AR-T4L, comparison in words” value in data set [1] (10 times CMC and 50 times CMC) is given as “best overall properties for stabilizing β2AR-T4L”. Further, the ΔTm entry is recorded as “+3.9” in data set [1] (10 × CMC, relative to DDM); “+5.4” in data set [1] (50 × CMC, relative to DDM); “+4.9” in data set [1] (concentration not given, matches most favourable (*) Tm minus DDM 63.5); “+4.6” in data set [2] (relative to DDM). The Tm in data set [1] (setting [5]) was 67.4 (n = 3); in data set [1] (50 × CMC) it was 68.4 (n = 3)*; in data set [2], 66.8 (n = 3). In the data set with M3 muscarinic receptor, the “Binding (counts per minute (CPM)) of [3H]NMS compared to the use of DDM alone” value is on record as “nine-fold higher”. For the same compound, the “CMC” value in data set [4] stood at 0.01 mM. Further, the “CMC (%)” value in data set [4] is 0.001%. The “Outcome of LCP crystallization of agonist-bound β2AR” value at β2AR is given as “diffraction quality crystals were obtained”.
For the compound `CCCCCCCCCC(CCCCCCCCC)(COC1OC(CO)C(OC2OC(CO)C(O)C(O)C2O)C(O)C1O)COC1OC(CO)C(OC2OC(CO)C(O)C(O)C2O)C(O)C1O` (centres unmarked) [MNG-28], the “Binding (counts per minute (CPM)) of [3H]NMS compared to the use of DDM alone” value with M3 muscarinic receptor is “three-fold greater”. Moreover, in data set [4], the “CMC” value is on record as 0.018 mM and the “CMC (%)” value turned out to be 0.0018%.
